How the values were obtained:
[1] = system: CD46 expression; assay: CD46 expression by RNA-sequencing in paired tumor biopsies before and after therapy; details: for CD46 expression diff (post minus pre) / Percent Change in CD46 expression / CD46 expression, Post-Treatment Biopsy / CD46 expression, Pre-Treatment Biopsy: paired biopsies; for CD46 expression, Post-Treatment Biopsy / CD46 expression, Pre-Treatment Biopsy: RNA-seq log2-transformed counts;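 as to all read-outs here: FFPE human tumor biopsies, exome-capture RNA-seq, reads aligned to GRCh37, counts normalized for GC content, length and depth, summed per gene, log2-transformed, samples paired before versus after therapy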
Experimental: Gene expression was determined by RNA-sequencing from formalin-fixed, paraffin-embedded (FFPE) tumor samples using an exome capture-based protocol. Briefly, total nucleic acid was extracted from FFPE solid tumor samples. The RNA sample was treated with DNAse and reverse transcribed. cDNA was captured with a custom probe set targeting the human exome. A library was prepared from the captured cDNA and sequenced on the Illumina platform. Sequence read were aligned to GRCh37 using Kallisto and normalized to quantify gene expression. Specifically, transcript counts were corrected for GC content and length using quantile normalization and adjusted for sequencing depth via a size factor method. Normalized counts in protein coding transcripts covered by the exome panel were then summed to obtain gene-level counts. Subsequent expression analyses were performed on log2-transformed counts.

[2] = system: CD46 expression; assay: CD46 expression by RNA-sequencing in unpaired pre-treatment and post-treatment tumor biopsies; type: in vivo, human
[3] = Prostate Cancer, Post minus Pre, unpaired biopsies, log2-transformed counts
[4] = Prostate Cancer, post- vs pre-treatment unpaired biopsies
[5] = Prostate Cancer, post-treatment biopsies, unpaired, RNA-seq log2-transformed normalized counts
[6] = Breast Cancer, Post minus Pre, unpaired biopsies, log2-transformed counts
[7] = Breast Cancer, post- vs pre-treatment unpaired biopsies
[8] = Breast Cancer, post-treatment biopsies, unpaired, RNA-seq log2-transformed normalized counts
[9] = Colorectal Cancer, Post minus Pre, unpaired biopsies, log2-transformed counts
[10] = Colorectal Cancer, post- vs pre-treatment unpaired biopsies
[11] = Colorectal Cancer, post-treatment biopsies, unpaired, RNA-seq log2-transformed normalized counts
[12] = Endocrine Tumor, Post minus Pre, unpaired biopsies, log2-transformed counts
[13] = Endocrine Tumor, post- vs pre-treatment unpaired biopsies
[14] = Endocrine Tumor, post-treatment biopsies, unpaired, RNA-seq log2-transformed normalized counts
[15] = Esophageal Cancer, Post minus Pre, unpaired biopsies, log2-transformed counts
[16] = Esophageal Cancer, post- vs pre-treatment unpaired biopsies
[17] = Esophageal Cancer, post-treatment biopsies, unpaired, RNA-seq log2-transformed normalized counts
[18] = Non-Small Cell Lung Cancer, post minus pre, unpaired biopsies
[19] = Non-Small Cell Lung Cancer, post vs pre, unpaired biopsies
[20] = Non-Small Cell Lung Cancer, post-treatment biopsies, log2-transformed RNA-seq counts

C[C@]12CC[C@H](O)CC1=CC[C@@H]1[C@@H]2CC[C@]2(C)C(c3cccnc3)=CC[C@@H]12 [abiraterone]
CD46 expression diff (post minus pre) ([1]; Prostate Cancer): 0.29 | Percent Change in CD46 expression ([1]; Prostate Cancer): 5.1% | CD46 expression diff [2, 3]: −0.07 | CD46 expression Percentage change [2, 4]: −1.1% | CD46 expression Post [2, 5]: 6.10

Cc1nc(NC(=O)N2CCC[C@H]2C(N)=O)sc1-c1ccnc(C(C)(C)C(F)(F)F)c1 [alpelisib]
CD46 expression diff (post minus pre) ([1]; Breast Cancer): −0.01 | Percent Change in CD46 expression ([1]; Breast Cancer): −0.1% | CD46 expression, Post-Treatment Biopsy ([1]; Breast Cancer): 6.57 | CD46 expression diff [2, 6]: 0.13 | CD46 expression Percentage change [2, 7]: 2.0% | CD46 expression Post [2, 8]: 6.67

CC(C)(C#N)c1cc(Cn2cncn2)cc(C(C)(C)C#N)c1 [anastrozole]
CD46 expression diff (post minus pre) ([1]; Breast Cancer): 0.41 | Percent Change in CD46 expression ([1]; Breast Cancer): 6.7% | CD46 expression, Post-Treatment Biopsy ([1]; Breast Cancer): 6.49 | subjects whose paired biopsies showed increased CD46 expression ([1]; breast cancer, 15 of 19 subjects, FIG. 3): 79% | CD46 expression diff [2, 6]: 0.06 | CD46 expression Percentage change [2, 7]: 0.9% | CD46 expression Post [2, 8]: 6.41

CC(O)(CS(=O)(=O)c1ccc(F)cc1)C(=O)Nc1ccc(C#N)c(C(F)(F)F)c1 (stereo not drawn) [bicalutamide]
CD46 expression diff (post minus pre) ([1]; Prostate Cancer): −0.24 | Percent Change in CD46 expression ([1]; Prostate Cancer): −3.8% | CD46 expression, Post-Treatment Biopsy ([1]; Prostate Cancer): 6.08 | CD46 expression diff [2, 3]: −0.06 | CD46 expression Percentage change [2, 4]: −0.9%

CO[C@H]1C(=O)[C@]2(C)[C@@H](OC)C[C@H]3OC[C@@]3(OC(C)=O)[C@H]2[C@H](OC(=O)c2ccccc2)[C@]2(O)C[C@H](OC(=O)[C@H](O)[C@@H](NC(=O)OC(C)(C)C)c3ccccc3)C(C)=C1C2(C)C [cabazitaxel]
CD46 expression diff (post minus pre) ([1]; Prostate Cancer): 0.07 | Percent Change in CD46 expression ([1]; Prostate Cancer): 1.2% | CD46 expression, Post-Treatment Biopsy ([1]; Prostate Cancer): 5.93 | CD46 expression diff [2, 3]: 0.09 | CD46 expression Percentage change [2, 4]: 1.6%

CCCCCOC(=O)Nc1nc(=O)n([C@@H]2O[C@H](C)[C@@H](O)[C@H]2O)cc1F [capecitabine]
CD46 expression diff (post minus pre) ([1]; Breast Cancer): −0.06 | Percent Change in CD46 expression ([1]; Breast Cancer): −0.9% | CD46 expression, Post-Treatment Biopsy ([1]; Breast Cancer): 6.23 | CD46 expression diff (post minus pre) ([1]; Colorectal Cancer): 0.06 | Percent Change in CD46 expression ([1]; Colorectal Cancer): 1.0% | CD46 expression diff (post minus pre) ([1]; Pancreatic Cancer): 0.16 | Percent Change in CD46 expression ([1]; Pancreatic Cancer): 2.8% | CD46 expression, Post-Treatment Biopsy ([1]; Pancreatic Cancer): 5.98 | CD46 expression diff ([2]; Biliary Cancer, Post minus Pre, unpaired biopsies, log2-transformed counts): 0.10 | CD46 expression Percentage change ([2]; Biliary Cancer, post- vs pre-treatment unpaired biopsies): 1.8% | CD46 expression Post ([2]; Biliary Cancer, post-treatment biopsies, unpaired, RNA-seq log2-transformed normalized counts): 5.87 | CD46 expression diff [2, 6]: −0.07 | CD46 expression Percentage change [2, 7]: −1.2% | CD46 expression Post [2, 8]: 6.15 | CD46 expression diff [2, 9]: 0.05 | CD46 expression Percentage change [2, 10]: 0.8% | CD46 expression Post [2, 11]: 6.43 | CD46 expression diff [2, 12]: 0.06 | CD46 expression Percentage change [2, 13]: 1.1% | CD46 expression Post [2, 14]: 5.66 | CD46 expression diff [2, 15]: 0.05 | CD46 expression Percentage change [2, 16]: 0.8% | CD46 expression Post [2, 17]: 6.02 | CD46 expression diff ([2]; Gastric Cancer, Post minus Pre, unpaired biopsies, log2-transformed counts): −0.04 | CD46 expression Percentage change ([2]; Gastric Cancer, post- vs pre-treatment unpaired biopsies): −0.7% | CD46 expression Post ([2]; Gastric Cancer, post-treatment biopsies, unpaired, RNA-seq log2-transformed normalized counts): 5.73 | CD46 expression diff ([2]; Pancreatic Cancer, Post minus Pre, unpaired biopsies, log2-transformed counts): 0.07 | CD46 expression Percentage change ([2]; Pancreatic Cancer, post- vs pre-treatment unpaired biopsies): 1.2% | CD46 expression Post ([2]; Pancreatic Cancer, post-treatment biopsies, unpaired, RNA-seq log2-transformed normalized counts): 5.93

N.N.O=C([O-])C1(C(=O)[O-])CCC1.[Pt+2] [carboplatin]
CD46 expression diff (post minus pre) ([1]; Breast Cancer): −0.08 | Percent Change in CD46 expression ([1]; Breast Cancer): −1.2% | CD46 expression, Post-Treatment Biopsy ([1]; Breast Cancer): 6.06 | CD46 expression, Pre-Treatment Biopsy ([1]; Breast Cancer): 6.14 | CD46 expression diff (post minus pre) ([1]; Endometrial Cancer): 0.30 | Percent Change in CD46 expression ([1]; Endometrial Cancer): 5.1% | CD46 expression, Pre-Treatment Biopsy ([1]; Endometrial Cancer): 5.95 | CD46 expression diff (post minus pre) ([1]; Non-Small Cell Lung Cancer): −0.06 | Percent Change in CD46 expression ([1]; Non-Small Cell Lung Cancer): −1.0% | CD46 expression, Post-Treatment Biopsy ([1]; Non-Small Cell Lung Cancer): 6.07 | CD46 expression diff (post minus pre) ([1]; Ovarian Cancer): 0.01 | Percent Change in CD46 expression ([1]; Ovarian Cancer): 0.2% | CD46 expression, Post-Treatment Biopsy ([1]; Ovarian Cancer): 5.67 | CD46 expression, Pre-Treatment Biopsy ([1]; Ovarian Cancer): 5.66 | CD46 expression diff ([2]; Bladder Cancer, Post minus Pre, unpaired biopsies, log2-transformed counts): 0.14 | CD46 expression Percentage change ([2]; Bladder Cancer, post- vs pre-treatment unpaired biopsies): 2.3% | CD46 expression Post ([2]; Bladder Cancer, post-treatment biopsies, unpaired, RNA-seq log2-transformed normalized counts): 6.12 | CD46 expression diff [2, 6]: −0.07 | CD46 expression Percentage change [2, 7]: −1.1% | CD46 expression Post [2, 8]: 6.00 | CD46 expression diff [2, 9]: 0.59 | CD46 expression Percentage change [2, 10]: 10.3% | CD46 expression Post [2, 11]: 6.35 | CD46 expression diff [2, 12]: 0.22 | CD46 expression Percentage change [2, 13]: 3.9% | CD46 expression Post [2, 14]: 5.90 | CD46 expression diff ([2]; Endometrial Cancer, Post minus Pre, unpaired biopsies, log2-transformed counts): 0.01 | CD46 expression Percentage change ([2]; Endometrial Cancer, post- vs pre-treatment unpaired biopsies): 0.2% | CD46 expression Post ([2]; Endometrial Cancer, post-treatment biopsies, unpaired, RNA-seq log2-transformed normalized counts): 5.83 | CD46 expression diff [2, 15]: −0.11 | CD46 expression Percentage change [2, 16]: −1.8% | CD46 expression Post [2, 17]: 5.79 | CD46 expression diff ([2]; Head and Neck Squamous Cell Carcinoma, Post minus Pre, unpaired biopsies, log2-transformed counts): 0.11 | CD46 expression Percentage change ([2]; Head and Neck Squamous Cell Carcinoma, post- vs pre-treatment unpaired biopsies): 2.0% | CD46 expression Post ([2]; Head and Neck Squamous Cell Carcinoma, post-treatment biopsies, unpaired, RNA-seq log2-transformed normalized counts): 5.69 | CD46 expression diff ([2]; Non-Small Cell Lung Cancer, Post minus Pre, unpaired biopsies, log2-transformed counts): −0.08 | CD46 expression Percentage change ([2]; Non-Small Cell Lung Cancer, post- vs pre-treatment unpaired biopsies): −1.2% | CD46 expression Post ([2]; Non-Small Cell Lung Cancer, post-treatment biopsies, unpaired, RNA-seq log2-transformed normalized counts): 6.10 | CD46 expression diff ([2]; Ovarian Cancer, Post minus Pre, unpaired biopsies, log2-transformed counts): −0.01 | CD46 expression Percentage change ([2]; Ovarian Cancer, post- vs pre-treatment unpaired biopsies): −0.2% | CD46 expression Post ([2]; Ovarian Cancer, post-treatment biopsies, unpaired, RNA-seq log2-transformed normalized counts): 5.73 | CD46 expression diff [2, 3]: −0.03 | CD46 expression Percentage change [2, 4]: −0.5% | CD46 expression Post [2, 5]: 5.92

CCC1=C[C@@H]2CN(C1)Cc1c([nH]c3ccccc13)[C@@](C(=O)OC)(c1cc3c(cc1OC)N(C)[C@H]1[C@@](O)(C(=O)OC)[C@H](OC(C)=O)[C@]4(CC)C=CCN5CC[C@]31[C@@H]54)C2 [vinorelbine]
CD46 expression diff [2, 6]: −0.13 | CD46 expression Percentage change [2, 7]: −2.0% | CD46 expression Post [2, 8]: 6.24 | CD46 expression diff [2, 18]: −0.20 | CD46 expression Percentage change [2, 19]: −3.3% | CD46 expression Post [2, 20]: 5.98

O=P(O)(O)C(O)(Cn1ccnc1)P(=O)(O)O [zoledronic acid]
CD46 expression diff [2, 6]: 0.41 | CD46 expression Percentage change [2, 7]: 6.4% | CD46 expression Post [2, 8]: 6.78

ado-trastuzumab emtansine
CD46 expression Percentage change ([2]; in vivo): −0.8% | CD46 expression Post ([2]; in vivo): 6.20 | CD46 expression diff ([2]; in vivo): −0.05

aflibercept
CD46 expression diff [2, 9]: 0.21 | CD46 expression Percentage change [2, 10]: 3.3% | CD46 expression Post [2, 11]: 6.58

denosumab
CD46 expression diff [2, 6]: 0.40 | CD46 expression Percentage change [2, 7]: 6.2% | CD46 expression Post [2, 8]: 6.82

olaratumab
CD46 expression diff ([2]; Sarcoma, Post minus Pre, unpaired biopsies, log2-transformed counts): 0.11 | CD46 expression Percentage change ([2]; Sarcoma, post- vs pre-treatment unpaired biopsies): 2.3% | CD46 expression Post ([2]; Sarcoma, post-treatment biopsies, unpaired, RNA-seq log2-transformed normalized counts): 5.10

pertuzumab
CD46 expression diff [2, 6]: −0.08 | CD46 expression Percentage change [2, 7]: −1.3% | CD46 expression Post [2, 8]: 6.25

ramucirumab
CD46 expression diff [2, 18]: −0.17 | CD46 expression Percentage change [2, 19]: −2.8% | CD46 expression Post [2, 20]: 6.13 | CD46 expression Pre ([2]; Non-Small Cell Lung Cancer, pre-treatment biopsies, log2-transformed RNA-seq counts): 6.30

Reference: patent publication US20240058464A1 (Fortis Therapeutics, Inc., priority 2021, published 2024)
